# Assay: Antiarrhythmic activity in hiPSC-CMs assessed as cessation dose of cell beating
# Conditions: human, ipsc-cm; call rule not given here
row,SMILES,Activity
1,CNC(COc1cccc(C)c1C)c1ccccc1.Cl (stereo not drawn),133 µM
2,CC(N)COc1cccc(C(F)(F)F)c1.Cl (stereo not drawn),200 µM
3,Cc1cccc(C)c1OCC(N)C1CCCCC1.Cl (stereo not drawn),66 µM
4,Cl.NC(COc1ccc2ccccc2c1)c1ccccc1 (stereo not drawn),Not Active
5,Cc1ccc(OCC(N)c2ccccc2)cc1C.Cl (stereo not drawn),66 µM
6,Cl.NC(COc1cccc(C(F)(F)F)c1)c1ccccc1 (stereo not drawn),66 µM
7,CCCCNC(COc1cccc(C)c1C)c1ccccc1.Cl (stereo not drawn),133 µM
8,CCCCNC(C)COc1c(C)cccc1C.Cl (stereo not drawn),133 µM
9,CCCc1ccccc1OCC(C)N.Cl (stereo not drawn),200 µM
10,Cl.NC(COc1ccccc1OCC(F)(F)F)c1ccccc1 (stereo not drawn),66 µM
11,Cc1cccc(OCC(N)c2ccccc2)c1.Cl (stereo not drawn),133 µM
12,Cl.NC(COc1cccc2ccccc12)c1ccccc1 (stereo not drawn),Not Active
13,CC(N)COc1cc(C(F)(F)F)cc(C(F)(F)F)c1.Cl (stereo not drawn),133 µM
14,Cc1ccc(OCC(N)C2CC2)c(C)c1.Cl (stereo not drawn),200 µM

# Assay: Antiarrhythmic activity in patient-derived hiPSC-CMs carrying LQT3 mutation assessed as cessation dose for cell beating
# Assay type: functional, Homo sapiens, iPSC-CM
# Conditions: not given
row,SMILES,Activity [µM]
1,CNC(COc1cccc(C)c1C)c1ccccc1.Cl (stereo not drawn),66
2,CC(N)COc1cccc(C(F)(F)F)c1.Cl (stereo not drawn),200
3,Cc1cccc(C)c1OCC(N)C1CCCCC1.Cl (stereo not drawn),66
4,Cl.NC(COc1ccc2ccccc2c1)c1ccccc1 (stereo not drawn),133
5,Cc1ccc(OCC(N)c2ccccc2)cc1C.Cl (stereo not drawn),66
6,Cl.NC(COc1cccc(C(F)(F)F)c1)c1ccccc1 (stereo not drawn),66
7,CCCCNC(COc1cccc(C)c1C)c1ccccc1.Cl (stereo not drawn),200
8,CCCCNC(C)COc1c(C)cccc1C.Cl (stereo not drawn),66
9,CCCc1ccccc1OCC(C)N.Cl (stereo not drawn),133
10,Cl.NC(COc1ccccc1OCC(F)(F)F)c1ccccc1 (stereo not drawn),66
11,Cc1cccc(OCC(N)c2ccccc2)c1.Cl (stereo not drawn),66
12,Cl.NC(COc1cccc2ccccc12)c1ccccc1 (stereo not drawn),66
13,CC(N)COc1cc(C(F)(F)F)cc(C(F)(F)F)c1.Cl (stereo not drawn),66
14,Cc1ccc(OCC(N)C2CC2)c(C)c1.Cl (stereo not drawn),200

# Assay: Antiarrhythmic activity in hiPSC-CMs assessed as dose for induction of early after depolarizations
# Conditions: human, ipsc-cm
row,SMILES,Activity
1,CNC(COc1cccc(C)c1C)c1ccccc1.Cl (stereo not drawn),Not Active
2,CC(N)COc1cccc(C(F)(F)F)c1.Cl (stereo not drawn),Not Active
3,Cc1cccc(C)c1OCC(N)C1CCCCC1.Cl (stereo not drawn),Not Active
4,Cl.NC(COc1ccc2ccccc2c1)c1ccccc1 (stereo not drawn),Not Active
5,Cc1ccc(OCC(N)c2ccccc2)cc1C.Cl (stereo not drawn),Not Active
6,Cl.NC(COc1cccc(C(F)(F)F)c1)c1ccccc1 (stereo not drawn),Not Active
7,CCCCNC(COc1cccc(C)c1C)c1ccccc1.Cl (stereo not drawn),Not Active
8,CCCCNC(C)COc1c(C)cccc1C.Cl (stereo not drawn),66 µM
9,CCCc1ccccc1OCC(C)N.Cl (stereo not drawn),Not Active
10,Cl.NC(COc1ccccc1OCC(F)(F)F)c1ccccc1 (stereo not drawn),Not Active
11,Cc1cccc(OCC(N)c2ccccc2)c1.Cl (stereo not drawn),Not Active
12,Cl.NC(COc1cccc2ccccc12)c1ccccc1 (stereo not drawn),Not Active
13,CC(N)COc1cc(C(F)(F)F)cc(C(F)(F)F)c1.Cl (stereo not drawn),Not Active
14,Cc1ccc(OCC(N)C2CC2)c(C)c1.Cl (stereo not drawn),66 µM

# Assay: Antiarrhythmic activity in hiPSC-CMs assessed as fold prolongation of action potential relative to control
# Conditions: human, ipsc-cm
SMILES,Activity,fold change (FC)
CNC(COc1cccc(C)c1C)c1ccccc1.Cl (stereo not drawn),Not Active,–
CCCCNC(COc1cccc(C)c1C)c1ccccc1.Cl (stereo not drawn),Not Active,–
Cc1ccc(OCC(N)C2CC2)c(C)c1.Cl (stereo not drawn),–,2.12

# Assay: Antiarrhythmic activity in hiPSC-CMs assessed as prolongation of action potential
# Set-up: species or system Homo sapiens, iPSC-CM
# Conditions: Homo sapiens, iPSC-CM; read-out: EC50
row,SMILES,EC50 [nM]
1,CCCCNC(C)COc1c(C)cccc1C.Cl (stereo not drawn),7800
2,CCCc1ccccc1OCC(C)N.Cl (stereo not drawn),7800

# Same assay, conditions: ipsc-cm
row,SMILES,EC50
1,CC(N)COc1cccc(C(F)(F)F)c1.Cl (stereo not drawn),Not Active
2,Cc1cccc(C)c1OCC(N)C1CCCCC1.Cl (stereo not drawn),Not Active
3,Cl.NC(COc1ccc2ccccc2c1)c1ccccc1 (stereo not drawn),Not Active
4,Cc1ccc(OCC(N)c2ccccc2)cc1C.Cl (stereo not drawn),Not Active
5,Cl.NC(COc1cccc(C(F)(F)F)c1)c1ccccc1 (stereo not drawn),Not Active
6,Cl.NC(COc1ccccc1OCC(F)(F)F)c1ccccc1 (stereo not drawn),Not Active
7,Cc1cccc(OCC(N)c2ccccc2)c1.Cl (stereo not drawn),Not Active
8,Cl.NC(COc1cccc2ccccc12)c1ccccc1 (stereo not drawn),Not Active
9,CC(N)COc1cc(C(F)(F)F)cc(C(F)(F)F)c1.Cl (stereo not drawn),Not Active

# Assay: Antiarrhythmic activity in patient-derived hiPSC-CMs carrying LQT3 mutation assessed as fold shortening of action potential duration relative to control; note: test concentration or dose not given here
# Assay type: functional, Homo sapiens, iPSC-CM
# Conditions: not given
row,SMILES,fold change (FC)
1,CNC(COc1cccc(C)c1C)c1ccccc1.Cl (stereo not drawn),1.29
2,CC(N)COc1cccc(C(F)(F)F)c1.Cl (stereo not drawn),1.661
3,Cc1cccc(C)c1OCC(N)C1CCCCC1.Cl (stereo not drawn),1.136
4,Cl.NC(COc1ccc2ccccc2c1)c1ccccc1 (stereo not drawn),1.459
5,Cc1ccc(OCC(N)c2ccccc2)cc1C.Cl (stereo not drawn),1.37
6,Cl.NC(COc1cccc(C(F)(F)F)c1)c1ccccc1 (stereo not drawn),1.539
7,CCCCNC(COc1cccc(C)c1C)c1ccccc1.Cl (stereo not drawn),1.423
8,CCCCNC(C)COc1c(C)cccc1C.Cl (stereo not drawn),1.18
9,CCCc1ccccc1OCC(C)N.Cl (stereo not drawn),1.192
10,Cl.NC(COc1ccccc1OCC(F)(F)F)c1ccccc1 (stereo not drawn),1.409
11,Cc1cccc(OCC(N)c2ccccc2)c1.Cl (stereo not drawn),1.41
12,Cl.NC(COc1cccc2ccccc12)c1ccccc1 (stereo not drawn),1.316
13,CC(N)COc1cc(C(F)(F)F)cc(C(F)(F)F)c1.Cl (stereo not drawn),1.2
14,Cc1ccc(OCC(N)C2CC2)c(C)c1.Cl (stereo not drawn),1.119

# Assay: Antiarrhythmic activity in patient-derived hiPSC-CMs carrying LQT3 mutation assessed as shortening dose of action potential
# Assay type: functional, Homo sapiens, iPSC-CM
# Conditions: not given
row,SMILES,Activity [µM]
1,CNC(COc1cccc(C)c1C)c1ccccc1.Cl (stereo not drawn),22
2,CC(N)COc1cccc(C(F)(F)F)c1.Cl (stereo not drawn),133
3,Cc1cccc(C)c1OCC(N)C1CCCCC1.Cl (stereo not drawn),0.8
4,Cl.NC(COc1ccc2ccccc2c1)c1ccccc1 (stereo not drawn),2.5
5,Cc1ccc(OCC(N)c2ccccc2)cc1C.Cl (stereo not drawn),22
6,Cl.NC(COc1cccc(C(F)(F)F)c1)c1ccccc1 (stereo not drawn),22
7,CCCCNC(COc1cccc(C)c1C)c1ccccc1.Cl (stereo not drawn),133
8,CCCCNC(C)COc1c(C)cccc1C.Cl (stereo not drawn),2.5
9,CCCc1ccccc1OCC(C)N.Cl (stereo not drawn),7.4
10,Cl.NC(COc1ccccc1OCC(F)(F)F)c1ccccc1 (stereo not drawn),22
11,Cc1cccc(OCC(N)c2ccccc2)c1.Cl (stereo not drawn),22
12,Cl.NC(COc1cccc2ccccc12)c1ccccc1 (stereo not drawn),66
13,CC(N)COc1cc(C(F)(F)F)cc(C(F)(F)F)c1.Cl (stereo not drawn),7.4
14,Cc1ccc(OCC(N)C2CC2)c(C)c1.Cl (stereo not drawn),66

# Assay: Antiarrhythmic activity in patient-derived hiPSC-CMs carrying LQT3 mutation assessed as shortening of action potential duration
# Assay type: functional, Homo sapiens
# Conditions: ipsc-cm
row,SMILES,EC50
1,CNC(COc1cccc(C)c1C)c1ccccc1.Cl (stereo not drawn),Not Active
2,Cc1ccc(OCC(N)c2ccccc2)cc1C.Cl (stereo not drawn),Not Active

# Same assay, conditions: ipsc-cm; read-out: EC50
row,SMILES,EC50 [nM]
1,CC(N)COc1cccc(C(F)(F)F)c1.Cl (stereo not drawn),31300
2,Cc1cccc(C)c1OCC(N)C1CCCCC1.Cl (stereo not drawn),< 800
3,Cl.NC(COc1ccc2ccccc2c1)c1ccccc1 (stereo not drawn),8700
4,Cl.NC(COc1cccc(C(F)(F)F)c1)c1ccccc1 (stereo not drawn),4100
5,CCCCNC(COc1cccc(C)c1C)c1ccccc1.Cl (stereo not drawn),20200
6,CCCCNC(C)COc1c(C)cccc1C.Cl (stereo not drawn),< 800
7,CCCc1ccccc1OCC(C)N.Cl (stereo not drawn),900
8,Cl.NC(COc1ccccc1OCC(F)(F)F)c1ccccc1 (stereo not drawn),900
9,Cc1cccc(OCC(N)c2ccccc2)c1.Cl (stereo not drawn),< 800
10,Cl.NC(COc1cccc2ccccc12)c1ccccc1 (stereo not drawn),820
11,CC(N)COc1cc(C(F)(F)F)cc(C(F)(F)F)c1.Cl (stereo not drawn),900
12,Cc1ccc(OCC(N)C2CC2)c(C)c1.Cl (stereo not drawn),1360
